In patent publication US11390591B2, “2,4,6-trisubstituted s-triazine compound, preparation method therefor, and use thereof” (Aluda Pharmaceuticals, Inc., priority 2016, dated 2022):
Read-outs that look alike come from different tables or passages of the source.

Experiments:
Type in all cases: cell-based
[1] = tested on: cell lines of human non-small cell lung cancer (H522); experiment: In vitro antineoplastic activity, MTT experiment, H522; conditions: H522 cells, 48 hours, highest concentration tested 31.6 μM (>30: inhibition rate <50%)
Procedure: (§1) MTT, RPM1640 culture medium, fetal bovine serum, 96-well plate, CO2 thermostatic incubator, American BIO-RAD680 microplate reader, cell lines of human non-small cell lung cancer (H522), and cell lines of human brain glioma (U87) were all obtained commercially.
(§2) (1) Cell inoculation: A single cell suspension was prepared with culture media supplemented with 10% fetal bovine serum, plated into a 96-well plate with 5000 cells per well, each well having a volume of 100 μL, and cultured overnight.
(§3) (2) Preparation of compound solutions: a DMSO stock solution of a compound was diluted on a sterile bench with a culture medium into 5 concentrations to be tested, wherein a double dilution was employed between two adjacent concentrations.
(§4) (3) The compound solutions of various concentrations were added into the 96-well plate cultured overnight, with 100 μL added per well, triplicated wells for each concentration. Since the peripheral wells can have edge effect and are susceptible to contamination, no cells or compounds were added thereto; instead, 100 μL culture solution was added as a blank. Additionally, 100% wells were set to contain the cells and 100 μL culture media without any compound. The plates were incubated in a thermostatic incubator at 37° C. for 48 hours.
(§5) (4) Staining: 10 μL MTT solution (5 mg/mL, prepared with PBS) was added into the 96-well plate for staining. After incubation for 4 hours, centrifugation was performed at 2500 rpm for 10 minutes. Then, a multiple pipette was used to suck the culture solution out of the wells carefully without sucking out the cells while the pipette tip faced downward. 150 μL DMSO was added and shaken on a shaker for 5-10 minutes. Crystals were allowed to dissolve fully, and an OD value for each well was measured using the microplate reader at 570 nm. The inhibition rate was calculated as follows: Inhibition rate (%)=(average OD value of 100% wells−average OD value of compound wells)/(average OD value of 100% wells−average OD value of blank wells)×100%

[2] = tested on: cell lines of human brain glioma (U87); experiment: In vitro antineoplastic activity, MTT experiment, U87
Procedure: as §1, §2, §3, §4, §5

human glioma U87 cells = experiment: Tumor cell vacuolization (methuosis) scoring, U87; set-up: key to Vacuolation Score: 5 scores were given when obvious vacuolization occurred at 10 nM; 4 scores at 31.6 nM; 3 scores at 100 nM; 2 scores at 316 nM; 1 score at 1000 nM; 0 score was given if no vacuolation occurred at any concentration; conditions: U87 cells; for Vacuolation Score: 0.01-3.160 μM, 96 hours, microscope
Procedure: FIG. 2. Vacuolization of tumor cells. 100 microliter culture medium (RPMI1640, 2 mmol glutamine, 10% fetal bovine serum) containing 10^3 human colon adenocarcinoma cells (HCT15) or human brain glioma cells (U87) and a solvent DMSO control or 100 nM #40 compound (L16) was plated into a 96-well cell culture plate, and cell morphological image was taken under a phase contrast microscope after cultured at 5% CO2 and 37° C. for 96 hours.
Some cells gradually became round and eventually bursted. These changes are consistent with the features of cell death by methuosis (FIG. 2).
In order to compare the ability of different compounds to cause cell vacuolization, 100 μL culture media (RPMI1640, 2 mmol glutamine, 10% fetal bovine serum) comprising 10^3 human glioma U87 cells and final concentrations of 0.01, 0.0316, 0.1, 0.316, 1.0, 3.160 μM respectively of the compounds to be tested were inoculated into a 96-well culture plate. After cultured at 5% CO2 and 37° C. for 96 hours, cell morphology was observed under a high-magnification microscope, and the ability of the compounds to cause cell vacuolization was scored. 5 scores were given when obvious vacuolization occurred at 10 nM, 4 scores at 31.6 nM, 3 scores at 100 nM, 2 scores at 316 nM, 1 score at 1000 nM, and 0 score was given if no vacuolation occurred at any concentration.

[3] = U87 cells, MTT, 48 hours, highest concentration tested 31.6 μM, read-out: IC50(μM) U87
[4] = ability to inhibit cell proliferation, U87 (FIG. 3), unit inferred, read-out: IC50

Row | Structure (SMILES) | IC50 [1] [µM] | IC50 [2, 3] [µM] | IC50 [2, 4] [µM] | IC50 ([2]; Homo sapiens, ability to inhibit cell proliferation, U87 (FIG. 3), unit inferred, read-out: IC50) [µM] | Vacuolation Score (human glioma U87 cells) | ability to cause cell vacuolization (in words) (human glioma U87 cells; among the compounds tested)
1 | CN1CCN(c2nc(/C=C/c3ccccc3)nc(Nc3ccc(NC(=O)Nc4ccc(F)cc4)cc3)n2)CC1 [L4, (E)-1-(4-fluorophenyl)-3-(4-(4-(4-methylpiperazin-1-yl)-6-styrenyl-1,3,5-triazinyl-2-amino)phenyl)urea] | 1.92 ± 0.19 | 1.19 ± 0.07 | 1.19 |  | 0 | 
2 | CN1CCN(c2nc(/C=C/c3ccccc3)nc(Nc3cccc(NC(=O)Nc4ccc(Cl)cc4)c3)n2)CC1 [L24, (E)-1-(4-chlorophenyl)-3-(3-(4-(4-methylpiperazin-1-yl)-6-styrenyl-1,3,5-triazinyl-2-amino)phenyl)urea] | 4.03 ± 0.65 | 4.4 ± 0.88 | 4.4 |  | 0 | 
3 | O=C(Nc1ccc(Nc2nc(/C=C/c3ccccc3)nc(N3CCOCC3)n2)cc1)Nc1ccc(C(=O)O)cc1 [compound 14, (E)-1-(4-carboxyphenyl)-3-(4-(4-(morpholin-1-yl)-6-styrenyl-1,3,5-triazinyl-2-amino)phenyl)urea] |  |  |  |  | 1.5 | 
4 | CN1CCN(c2nc(/C=C/c3cccc(Cl)c3)nc(Nc3ccc(NC(=O)Nc4ccc(F)cc4)cc3)n2)CC1 [L9, (E)-1-(4-fluorophenyl)-3-(4-(4-(4-methylpiperazin-1-yl)-6-(3-chlorostyrenyl)-1,3,5-triazinyl-2-amino)phenyl)urea] | 3.88 ± 0.65 | 1.47 ± 0.12 | 1.47 |  | 2 (2 scores at 316 nM) | 
5 | CN1CCN(c2nc(/C=C/c3ccccc3)nc(Nc3ccc(NC(=O)Nc4ccc(Cl)cc4)cc3)n2)CC1 [L3, (E)-1-(4-chlorophenyl)-3-(4-(4-(4-methylpiperazin-1-yl)-6-styrenyl-1,3,5-triazinyl-2-amino)phenyl)urea] | > 30 | 10.6 ± 1.2 | > 10 |  | 0 | 
6 | O=C(Nc1ccc(Cl)cc1)Nc1ccc(Nc2nc(/C=C/c3ccccc3)nc(N3CCOCC3)n2)cc1 [L1, (E)-1-(4-chlorophenyl)-3-(4-(4-(morpholin-1-yl)-6-styrenyl-1,3,5-triazinyl-2-amino)phenyl)urea] | 3.26 ± 0.34 | 4.79 ± 0.55 | 3.53 |  | 5 (5 scores were given when obvious vacuolization occurred at 10 nM) | strongest ability to cause cell vacuolization
7 | O=C(Nc1ccc(Cl)cc1)Nc1ccc(Nc2nc(/C=C/c3cccc([N+](=O)[O-])c3)nc(N3CCCC3)n2)cc1 [L21, (E)-1-(4-chlorophenyl)-3-(4-(4-(pyrrolidin-1-yl)-6-(3-nitrostyrenyl)-1,3,5-triazinyl-2-amino)phenyl)urea] | 7.3 ± 0.75 | 4.47 ± 0.39 | 4.47 |  | 0 | 
8 | CN1CCN(c2nc(/C=C/c3ccc(Cl)cc3)nc(Nc3ccc(NC(=O)Nc4ccc(Cl)cc4)cc3)n2)CC1 [L13, (E)-1-(4-chlorophenyl)-3-(4-(4-(4-methylpiperazin-1-yl)-6-(4-chlorostyrenyl)-1,3,5-triazinyl-2-amino)phenyl)urea] | 0.87 ± 0.08 | 2.04 ± 0.09 | 2.04 |  | 0 | 
9 | O=C(Nc1ccc(Cl)cc1)Nc1ccc(Nc2nc(/C=C/c3cccc(Cl)c3)nc(N3CCOCC3)n2)cc1 [L6, (E)-1-(4-chlorophenyl)-3-(4-(4-(morpholin-1-yl)-6-(3-chlorostyrenyl)-1,3,5-triazinyl-2-amino)phenyl)urea] | 5.25 ± 0.45 | 3.63 ± 0.11 | 3.63 |  | 4 (4 scores at 31.6 nM) | 

Continued, in another order:

Row | IC50 [1] [µM] | IC50 [2, 3] [µM] | IC50 [2, 4] [µM] | IC50 ([2]; Homo sapiens, ability to inhibit cell proliferation, U87 (FIG. 3), unit inferred, read-out: IC50) [µM] | Structure (SMILES) | Vacuolation Score (human glioma U87 cells) | ability to cause cell vacuolization (in words) (human glioma U87 cells; among the compounds tested)
10 | 2.55 ± 0.12 | 4.41 ± 0.43 | 4.43 |  | O=C(Nc1ccc(Nc2nc(/C=C/c3ccc(Cl)cc3)nc(N3CCOCC3)n2)cc1)Nc1cccc(F)c1 [L12, (E)-1-(3-fluorophenyl)-3-(4-(4-(morpholin-1-yl)-6-(4-chlorostyrenyl)-1,3,5-triazinyl-2-amino)phenyl)urea] | 2 (2 scores at 316 nM) | 
11 | 2.53 ± 0.28 | 2.2 ± 0.21 | 2.2 |  | O=C(Nc1ccc(Cl)cc1)Nc1cccc(Nc2nc(/C=C/c3cccc(Cl)c3)nc(N3CCOCC3)n2)c1 [L25, (E)-1-(4-chlorophenyl)-3-(3-(4-(morpholin-1-yl)-6-(3-chlorostyrenyl)-1,3,5-triazinyl-2-amino)phenyl)urea] | 0 | 
12 | 1.42 ± 0.12 | 1.33 ± 0.13 | 1.32 |  | O=C(Nc1ccc(F)cc1)Nc1ccc(Nc2nc(/C=C/c3cccc(Cl)c3)nc(N3CCOCC3)n2)cc1 [L7, (E)-1-(4-fluorophenyl)-3-(4-(4-(morpholin-1-yl)-6-(3-chlorostyrenyl)-1,3,5-triazinyl-2-amino)phenyl)urea] | 4 (4 scores at 31.6 nM) | 
13 | 1.44 ± 0.1 | 1 ± 0.06 | 1 |  | O=C(Nc1ccc(Cl)cc1)Nc1cccc(Nc2nc(/C=C/c3ccccc3)nc(N3CCOCC3)n2)c1 [L23, (E)-1-(4-chlorophenyl)-3-(3-(4-(morpholin-1-yl)-6-styrenyl-1,3,5-triazinyl-2-amino)phenyl)urea] | 0 | 
14 | 2.21 ± 0.33 | 3.66 ± 0.55 | 3.66 |  | O=C(Nc1ccc(Cl)cc1)Nc1cccc(Nc2nc(/C=C/c3cccc([N+](=O)[O-])c3)nc(N3CCOCC3)n2)c1 [L27, (E)-1-(4-chlorophenyl)-3-(3-(4-(morpholin-1-yl)-6-(3-nitrostyrenyl)-1,3,5-triazinyl-2-amino)phenyl)urea] | 0 | 
15 |  |  |  | 3.28 | Cl.O=C(Nc1ccc(Cl)cc1)Nc1ccc(Nc2nc(/C=C/c3cccc([N+](=O)[O-])c3)nc(N3CCOCC3)n2)cc1 [compound 68] | 4 (4 scores at 31.6 nM) | 
16 | 1.05 ± 0.04 | 0.23 ± 0.01 | 0.22 |  | CN1CCN(C(=O)c2ccc(NC(=O)Nc3ccc(Nc4nc(/C=C/c5ccccc5)nc(N5CCOCC5)n4)cc3)cc2)CC1 [L31, (E)-1-(4-((4-methylpiperazin-1-yl)formyl)phenyl)-3-(4-(4-(morpholin-1-yl)-6-styrenyl-1,3,5-triazinyl-2-amino)phenyl)urea] | 2.5 | 
17 | 5.03 ± 0.4 | 2.48 ± 0.44 | 2.8 |  | CN(C)CCNC(=O)c1ccc(NC(=O)Nc2ccc(Nc3nc(/C=C/c4ccccc4)nc(N4CCOCC4)n3)cc2)cc1 [L32, (E)-N-(2-(dimethylamino)ethyl)-4-(3-(4-(4-(morpholin-1-yl)-6-styrenyl-1,3,5-triazinyl-2-amino)phenyl)urea)benzamide] | 4.5 | 
18 | 4.31 ± 0.09 | 1.3 ± 0.05 | 1.9 |  | CCN(CC)CCNC(=O)c1ccc(NC(=O)Nc2ccc(Nc3nc(/C=C/c4ccccc4)nc(N4CCOCC4)n3)cc2)cc1 [L33, (E)-N-(2-(diethylamino)ethyl)-4-(3-(4-(4-(morpholin-1-yl)-6-styrenyl-1,3,5-triazinyl-2-amino)phenyl)urea)benzamide] | 3.5 | 
19 | 2.31 ± 0.17 | 1.21 ± 0.07 | 1.21 |  | CN1CCN(c2nc(/C=C/c3cccc([N+](=O)[O-])c3)nc(Nc3ccc(NC(=O)Nc4ccc(Cl)cc4)cc3)n2)CC1 [L18, (E)-1-(4-chlorophenyl)-3-(4-(4-(4-methylpiperazin-1-yl)-6-(3-nitrostyrenyl)-1,3,5-triazinyl-2-amino)phenyl)urea] | 0 | 
